Experimental data as given in patent US6403082B1, “Bacteriocins, transport and vector system and method of use thereof” (priority 1996, dated 2002).

Tests used:
Experiment in all cases: Spot test of partially purified bacteriocins on strains grown on agar
Carnobacteria = tested on: Carnobacteria
Lactococcus = tested on: Lactococcus
Enterococcus = tested on: Enterococcus
Staphylococcus = tested on: Staphylococcus
Pediococcus = tested on: Pediococcus
Lactobacillus = tested on: Lactobacillus
Leuconostoc = tested on: Leuconostoc
Clostridia spores = assay type: cell-based, Clostridium
Streptococcus = tested on: Streptococcus
G negative strains = assay type: cell-based
[1] = tested on: Clostridia vegetative cells; assay type: cell-based, Clostridium
Bacillus spores = assay type: cell-based
Brochothrix = tested on: Brochothrix
Listeria = tested on: Listeria
[2] = tested on: Bacillus vegetative cells; assay type: cell-based

Substance: Enterocin 900: broad spectrum bacteriocin of 71 amino acids (SEQ ID NO:30) produced by Enterococcus faecium 900 (MKKELLNKNEMSRIIGGKINWGNVGGSCVGGAVIGGALGGLGGAGGGCITGAIGSIWDQ; Brochocin-C peptide B;)
- Number of strains inhibited/Number of strains tested (Carnobacteria; 1AU (10 μl/spot of 100 AU/ml)): 1/19
- Number of strains inhibited/Number of strains tested (Carnobacteria; 8AU (10 μl/spot of 800 AU/ml)): 7/19
- Number of strains inhibited/Number of strains tested (Lactococcus; 1AU (10 μl/spot of 100 AU/ml)): 4/8
- Number of strains inhibited/Number of strains tested (Lactococcus; 8AU (10 μl/spot of 800 AU/ml)): 4/8
- Number of strains inhibited/Number of strains tested (Enterococcus; 1AU (10 μl/spot of 100 AU/ml)): 5/14
- Number of strains inhibited/Number of strains tested (Enterococcus; 8AU (10 μl/spot of 800 AU/ml)): 8/14
- Number of strains inhibited/Number of strains tested (Staphylococcus; 1AU (10 μl/spot of 100 AU/ml)): 1/7
- Number of strains inhibited/Number of strains tested (Staphylococcus; 8AU (10 μl/spot of 800 AU/ml)): 1/7
- Number of strains inhibited/Number of strains tested (Pediococcus; 1AU (10 μl/spot of 100 AU/ml)): 0/3
- Number of strains inhibited/Number of strains tested (Pediococcus; 8AU (10 μl/spot of 800 AU/ml)): 0/3
- Number of strains inhibited/Number of strains tested (Lactobacillus; 1AU (10 μl/spot of 100 AU/ml)): 2/17
- Number of strains inhibited/Number of strains tested (Lactobacillus; 8AU (10 μl/spot of 800 AU/ml)): 5/17
- Number of strains inhibited/Number of strains tested (Leuconostoc; 1AU (10 μl/spot of 100 AU/ml)): 1/9
- Number of strains inhibited/Number of strains tested (Leuconostoc; 8AU (10 μl/spot of 800 AU/ml)): 1/9
- Number of strains inhibited/Number of strains tested (Clostridia spores; 1AU (10 μl/spot of 100 AU/ml)): 0/7
- Number of strains inhibited/Number of strains tested (Clostridia spores; 8AU (10 μl/spot of 800 AU/ml)): 0/7
- Number of strains inhibited/Number of strains tested (Streptococcus; 1AU (10 μl/spot of 100 AU/ml)): 0/3
- Number of strains inhibited/Number of strains tested (Streptococcus; 8AU (10 μl/spot of 800 AU/ml)): 0/3
- Number of strains inhibited/Number of strains tested (G negative strains; 1AU (10 μl/spot of 100 AU/ml)): 0/29
- Number of strains inhibited/Number of strains tested (G negative strains; 8AU (10 μl/spot of 800 AU/ml)): 0/29
- Number of strains inhibited/Number of strains tested ([1]; 1AU (10 μl/spot of 100 AU/ml)): 2/8
- Number of strains inhibited/Number of strains tested ([1]; 8AU (10 μl/spot of 800 AU/ml)): 3/8
- Number of strains inhibited/Number of strains tested (Bacillus spores; 1AU (10 μl/spot of 100 AU/ml)): 0/5
- Number of strains inhibited/Number of strains tested (Bacillus spores; 8AU (10 μl/spot of 800 AU/ml)): 0/5
- Number of strains inhibited/Number of strains tested (Brochothrix; 1AU (10 μl/spot of 100 AU/ml)): 0/14
- Number of strains inhibited/Number of strains tested (Brochothrix; 8AU (10 μl/spot of 800 AU/ml)): 0/14
- Number of strains inhibited/Number of strains tested (Listeria; 1AU (10 μl/spot of 100 AU/ml)): 39/42
- Number of strains inhibited/Number of strains tested (Listeria; 8AU (10 μl/spot of 800 AU/ml)): 39/42
- Number of strains inhibited/Number of strains tested ([2]; 1AU (10 μl/spot of 100 AU/ml)): 0/5
- Number of strains inhibited/Number of strains tested ([2]; 8AU (10 μl/spot of 800 AU/ml)): 2/5

Substance: cbn A
- Number of strains inhibited/Number of strains tested (Carnobacteria; 1AU (10 μl/spot of 100 AU/ml)): 0/14
- Number of strains inhibited/Number of strains tested (Carnobacteria; 8AU (10 μl/spot of 800 AU/ml)): 0/14
- Number of strains inhibited/Number of strains tested (Lactococcus; 1AU (10 μl/spot of 100 AU/ml)): 0/8
- Number of strains inhibited/Number of strains tested (Lactococcus; 8AU (10 μl/spot of 800 AU/ml)): 0/8
- Number of strains inhibited/Number of strains tested (Enterococcus; 1AU (10 μl/spot of 100 AU/ml)): 2/14
- Number of strains inhibited/Number of strains tested (Enterococcus; 8AU (10 μl/spot of 800 AU/ml)): 2/14
- Number of strains inhibited/Number of strains tested (Staphylococcus; 1AU (10 μl/spot of 100 AU/ml)): 0/7
- Number of strains inhibited/Number of strains tested (Staphylococcus; 8AU (10 μl/spot of 800 AU/ml)): 1/7
- Number of strains inhibited/Number of strains tested (Pediococcus; 1AU (10 μl/spot of 100 AU/ml)): 0/3
- Number of strains inhibited/Number of strains tested (Pediococcus; 8AU (10 μl/spot of 800 AU/ml)): 0/3
- Number of strains inhibited/Number of strains tested (Lactobacillus; 1AU (10 μl/spot of 100 AU/ml)): 0/17
- Number of strains inhibited/Number of strains tested (Lactobacillus; 8AU (10 μl/spot of 800 AU/ml)): 1/17
- Number of strains inhibited/Number of strains tested (Leuconostoc; 1AU (10 μl/spot of 100 AU/ml)): 1/9
- Number of strains inhibited/Number of strains tested (Leuconostoc; 8AU (10 μl/spot of 800 AU/ml)): 1/9
- Number of strains inhibited/Number of strains tested (Clostridia spores; 1AU (10 μl/spot of 100 AU/ml)): 0/7
- Number of strains inhibited/Number of strains tested (Clostridia spores; 8AU (10 μl/spot of 800 AU/ml)): 0/7
- Number of strains inhibited/Number of strains tested (Streptococcus; 1AU (10 μl/spot of 100 AU/ml)): 0/3
- Number of strains inhibited/Number of strains tested (Streptococcus; 8AU (10 μl/spot of 800 AU/ml)): 0/3
- Number of strains inhibited/Number of strains tested (G negative strains; 1AU (10 μl/spot of 100 AU/ml)): 0/29
- Number of strains inhibited/Number of strains tested (G negative strains; 8AU (10 μl/spot of 800 AU/ml)): 0/29
- Number of strains inhibited/Number of strains tested ([1]; 1AU (10 μl/spot of 100 AU/ml)): 0/8
- Number of strains inhibited/Number of strains tested ([1]; 8AU (10 μl/spot of 800 AU/ml)): 0/8
- Number of strains inhibited/Number of strains tested (Bacillus spores; 1AU (10 μl/spot of 100 AU/ml)): 0/5
- Number of strains inhibited/Number of strains tested (Bacillus spores; 8AU (10 μl/spot of 800 AU/ml)): 0/5
- Number of strains inhibited/Number of strains tested (Brochothrix; 1AU (10 μl/spot of 100 AU/ml)): 0/14
- Number of strains inhibited/Number of strains tested (Brochothrix; 8AU (10 μl/spot of 800 AU/ml)): 0/14
- Number of strains inhibited/Number of strains tested (Listeria; 1AU (10 μl/spot of 100 AU/ml)): 4/42
- Number of strains inhibited/Number of strains tested (Listeria; 8AU (10 μl/spot of 800 AU/ml)): 21/42
- Number of strains inhibited/Number of strains tested ([2]; 1AU (10 μl/spot of 100 AU/ml)): 2/5
- Number of strains inhibited/Number of strains tested ([2]; 8AU (10 μl/spot of 800 AU/ml)): 2/5
